Assays:
CDK2/Cyclin E = CDK2/Cyclin E (Homo sapiens, UniProt P24941); test: CDK2/Cyclin E biochemical phosphorylation assay (Caliper mobility shift); conditions: apparent IC50; 1.0 mM ATP or ATP Km; 1.25 nM enzyme; 25° C.; read-out: CDK2/cyclin E1 IC50
Procedure, shortened: (§1)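 7.5 µM 5-FAM-QSPKKG-CONH2 peptide phosphorylated by CDK2/Cyclin E (1.25 nM) or GST-CDK1/Cyclin B1 (1.5 nM) at 1.0 mM ATP or ATP Km, in HEPES pH 7.5, MgCl2, Brij-35, DTT, 1% DMSO, 25 °C to 10–20% conversion. EDTA stop; Caliper mobility-shift readout; apparent IC50 from percent activity vs log concentration.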

CDK1/Cyclin B1, GST-tag = biological target: T1, CDK1/Cyclin B1, GST-tag (Homo sapiens, UniProt P06493); test: CDK1/Cyclin B1 biochemical phosphorylation assay (Caliper mobility shift); conditions: apparent IC50; 1.0 mM ATP or ATP Km; 1.5 nM enzyme; 25° C.
T1 construct: GST
Procedure, shortened: as §1

T1 sequence (P06493 whole entry): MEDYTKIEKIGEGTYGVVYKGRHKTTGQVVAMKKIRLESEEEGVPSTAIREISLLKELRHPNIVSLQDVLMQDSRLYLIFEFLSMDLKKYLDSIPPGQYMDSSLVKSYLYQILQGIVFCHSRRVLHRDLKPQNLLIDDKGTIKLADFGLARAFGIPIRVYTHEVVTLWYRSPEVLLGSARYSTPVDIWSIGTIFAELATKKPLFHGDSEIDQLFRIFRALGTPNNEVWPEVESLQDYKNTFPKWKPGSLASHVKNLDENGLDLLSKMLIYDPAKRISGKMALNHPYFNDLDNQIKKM
T1 sequence (P14635 whole entry partner): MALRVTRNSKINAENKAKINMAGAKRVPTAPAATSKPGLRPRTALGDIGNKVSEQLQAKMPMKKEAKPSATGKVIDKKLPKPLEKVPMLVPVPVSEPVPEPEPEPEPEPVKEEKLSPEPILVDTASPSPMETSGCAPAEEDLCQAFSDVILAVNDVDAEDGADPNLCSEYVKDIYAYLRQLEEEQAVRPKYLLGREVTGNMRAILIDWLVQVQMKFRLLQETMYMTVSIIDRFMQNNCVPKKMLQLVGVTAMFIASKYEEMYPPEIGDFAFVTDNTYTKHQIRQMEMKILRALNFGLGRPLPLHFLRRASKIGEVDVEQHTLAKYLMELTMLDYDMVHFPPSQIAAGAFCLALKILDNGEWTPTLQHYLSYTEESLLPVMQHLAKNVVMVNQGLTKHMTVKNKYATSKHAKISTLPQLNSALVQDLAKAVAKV

SMILES	IC50 (CDK2/Cyclin E)	IC50 (CDK1/Cyclin B1, GST-tag)
O[C@H]1CC[C@@H](n2ncc3ncc(Nc4cc(OC(F)F)[nH]n4)nc32)CC1 [Example 57, (1s,4s)-4-(6-((5-(difluoromethoxy)-1Hpyrazol-3-yl)amino)-1Hpyrazolo[3,4-b]pyrazin-1-yl)cyclohexan-1-ol]	0.03 to 0.1 µM	≥ 0.5 µM
C[C@@H](c1cncs1)n1ncc2ncc(Nc3cc(OC(F)F)[nH]n3)nc21 [Example 58, (S)-N-(5-(difluoromethoxy)-1H-pyrazol-3-yl)-1-(1-(thiazol-5-yl)ethyl)-1H-pyrazolo[3,4-b]pyrazin-6-amine]	≤ 0.01 µM	≥ 0.5 µM
COc1ncccc1[C@H](C)n1ncc2ncc(Nc3cc(OC(F)F)[nH]n3)nc21 [Example 59, (S)-N-(5-(difluoromethoxy)-1H-pyrazol-3-yl)-1-(1-(2-methoxypyridin-3-yl)ethyl)-1H-pyrazolo[3,4-b]pyrazin-6-amine]	≤ 0.01 µM	≥ 0.5 µM
C[C@@H](c1cccnc1Cl)n1ncc2ncc(Nc3cc(OC(F)F)[nH]n3)nc21 [Example 60, (S)-1-(1-(2-chloropyridin-3-yl)ethyl)-N-(5-(difluoromethoxy)-1H-pyrazol-3-yl)-1H-pyrazolo[3,4-b]pyrazin-6-amine]	≤ 0.01 µM	≥ 0.5 µM
C[C@@H](c1cccnc1)n1nc(Cl)c2ncc(Nc3cc(OC(F)F)[nH]n3)nc21 [Example 61, (S)-3-chloro-N-(5-(difluoromethoxy)-1H-pyrazol-3-yl)-1-(1-(pyridin-3-yl)ethyl)-1H-pyrazolo[3,4-b]pyrazin-6-amine]	≤ 0.01 µM	≥ 0.5 µM
C[C@@H]1C[C@H](Cn2ncc3ncc(Nc4cc(OC(F)F)[nH]n4)nc32)C[C@H](C)O1 [Example 65, N-(5-(difluoromethoxy)-1H-pyrazol-3-yl)-1-(((2R,4r,6S)-2,6-dimethyltetrahydro-2Hpyran-4-yl)methyl)-1Hpyrazolo[3,4-b]pyrazin-6-amine]	≤ 0.01 µM	< 0.1 µM
COc1cc(Nc2cnc3cnn(C[C@H]4C[C@@H](C)O[C@@H](C)C4)c3n2)n[nH]1 [Example 66, 1-(((2R,4r,6S)-2,6-dimethyltetrahydro-2H-pyran-4-yl)methyl)-N-(5-methoxy-1H-pyrazol-3-yl)-1H-pyrazolo[3,4-b]pyrazin-6-amine]	≤ 0.01 µM	< 0.1 µM
COc1cc(Nc2cnc3cnn([C@@H](C)c4cccnc4)c3n2)n[nH]1 [Example 67, (S)-N-(5-methoxy-1H-pyrazol-3-yl)-1-(1-(pyridin-3-yl)ethyl)-1H-pyrazolo[3,4-b]pyrazin-6-amine]	≤ 0.01 µM	≥ 0.5 µM
COc1cc(Nc2cnc3cnn([C@@H](C)C4CC4)c3n2)n[nH]1 [Example 68, (S)-1-(1-cyclopropylethyl)-N-(5-methoxy-1H-pyrazol-3-yl)-1H-pyrazolo[3,4-b]pyrazin-6-amine]	0.01 to 0.02 µM	≥ 0.5 µM
COc1cc(Nc2cnc3cnn(CC4CC4)c3n2)n[nH]1 [Example 69, 1-(cyclopropylmethyl)-N-(5-methoxy-1H-pyrazol-3-yl)-1H-pyrazolo[3,4-b]pyrazin-6-amine]	0.03 to 0.1 µM	≥ 0.5 µM
COc1cc(Nc2cnc3cnn(C[C@H]4CCOC4)c3n2)n[nH]1 [Example 70, (R)-N-(5-methoxy-1H-pyrazol-3-yl)-1-((tetrahydrofuran-3-yl)methyl)-1H-pyrazolo[3,4-b]pyrazin-6-amine]	≤ 0.01 µM	0.1 to 0.5 µM
COc1cc(Nc2cnc3cnn([C@@H](C)C4COC4)c3n2)n[nH]1 [Example 71, (S)-N-(5-methoxy-1H-pyrazol-3-yl)-1-(1-(oxetan-3-yl)ethyl)-1H-pyrazolo[3,4-b]pyrazin-6-amine]	0.01 to 0.02 µM	≥ 0.5 µM
C[C@@H](C1COC1)n1ncc2ncc(Nc3cc(OC(F)F)[nH]n3)nc21 [Example 72, (S)-N-(5-(difluoromethoxy)-1H-pyrazol-3-yl)-1-(1-(oxetan-3-yl)ethyl)-1H-pyrazolo[3,4-b]pyrazin-6-amine]	≤ 0.01 µM	≥ 0.5 µM
COc1cc(Nc2cnc3cnn([C@H](C)C4CC4)c3n2)n[nH]1 [Example 73, (R)-1-(1-cyclopropylethyl)-N-(5-methoxy-1H-pyrazol-3-yl)-1H-pyrazolo[3,4-b]pyrazin-6-amine]	0.01 to 0.02 µM	≥ 0.5 µM
COc1cc(Nc2cnc3cnn([C@@H](C)c4cncs4)c3n2)n[nH]1 [Example 74, (S)-N-(5-methoxy-1H-pyrazol-3-yl)-1-(1-(thiazol-5-yl)ethyl)-1H-pyrazolo[3,4-b]pyrazin-6-amine]	0.02 to 0.03 µM	≥ 0.5 µM
COc1cc(Nc2cnc3cnn(Cc4cncs4)c3n2)n[nH]1 [Example 75, N-(5-methoxy-1H-pyrazol-3-yl)-1-(thiazol-5-ylmethyl)-1H-pyrazolo[3,4-b]pyrazin-6-amine]	0.02 to 0.03 µM	≥ 0.5 µM
COc1cc(Nc2cnc3cnn(Cc4ccc(F)nc4)c3n2)n[nH]1 [Example 76, 1-((6-fluoropyridin-3-yl)methyl)-N-(5-methoxy-1H-pyrazol-3-yl)-1H-pyrazolo[3,4-b]pyrazin-6-amine]	0.02 to 0.03 µM	≥ 0.5 µM
CC(C)(C)n1ncc2ncc(Nc3cc(OC(F)F)[nH]n3)nc21 [Example 79, 1-(tert-butyl)-N-(5-(difluoromethoxy)-1H-pyrazol-3-yl)-1H-pyrazolo[3,4-b]pyrazin-6-amine]	0.02 to 0.03 µM	≥ 0.5 µM
C[C@H](c1ccccn1)n1ncc2ncc(Nc3cc(OC(F)F)[nH]n3)nc21 [Example 82, (R)-N-(5-(difluoromethoxy)-1H-pyrazol-3-yl)-1-(1-(pyridin-2-yl)ethyl)-1H-pyrazolo[3,4-b]pyrazin-6-amine]	0.02 to 0.03 µM	≥ 0.5 µM
Cc1nn(Cc2cccnc2)c2nc(Nc3cc(OC(F)F)[nH]n3)cnc12 [Example 84, N-(5-(difluoromethoxy)-1H-pyrazol-3-yl)-3-methyl-1-(pyridin-3-ylmethyl)-1H-pyrazolo[3,4-b]pyrazin-6-amine]	≤ 0.01 µM	≥ 0.5 µM

Now from value to compound:

IC50 (CDK2/Cyclin E)	IC50 (CDK1/Cyclin B1, GST-tag)	SMILES
0.01 to 0.02 µM	≥ 0.5 µM	FC(F)Oc1cc(Nc2cnc3c(Cl)nn(CC4CCOCC4)c3n2)n[nH]1 [Example 56, 3-chloro-N-(5-(difluoromethoxy)-1H-pyrazol-3-yl)-1-((tetrahydro-2H-pyran-4-yl)methyl)-1H-pyrazolo[3,4-b]pyrazin-6-amine]
≤ 0.01 µM	≥ 0.5 µM	N#Cc1nn(CC2CCOCC2)c2nc(Nc3cc(OC(F)F)[nH]n3)cnc12 [Example 62, 6-((5-(difluoromethoxy)-1H-pyrazol-3-yl)amino)-1-((tetrahydro-2H-pyran-4-yl)methyl)-1H-pyrazolo[3,4-b]pyrazine-3-carbonitrile]
≤ 0.01 µM	0.1 to 0.5 µM	C[C@@H](c1cccnc1F)n1nc(C#N)c2ncc(Nc3cc(OC(F)F)[nH]n3)nc21 [Example 63, (S)-6-((5-(difluoromethoxy)-1H-pyrazol-3-yl)amino)-1-(1-(2-fluoropyridin-3-yl)ethyl)-1H-pyrazolo[3,4-b]pyrazine-3-carbonitrile]
0.02 to 0.03 µM	≥ 0.5 µM	C[C@@H](C1CCOCC1)n1nc(C#N)c2ncc(Nc3cc(OC(F)F)[nH]n3)nc21 [Example 64, (S)-6-((5-(difluoromethoxy)-1H-pyrazol-3-yl)amino)-1-(1-(tetrahydro-2H-pyran-4-yl)ethyl)-1H-pyrazolo[3,4-b]pyrazine-3-carbonitrile]
≤ 0.01 µM	0.1 to 0.5 µM	C[C@@H](C1CCOCC1)n1ncc2ncc(Nc3cc(OC(F)F)[nH]n3)nc21 [Example 77, (S)-N-(5-(difluoromethoxy)-1H-pyrazol-3-yl)-1-(1-(tetrahydro-2H-pyran-4-yl)ethyl)-1H-pyrazolo[3,4-b]pyrazin-6-amine]
0.03 to 0.1 µM	≥ 0.5 µM	FC(F)Oc1cc(Nc2cnc3cnn([C@@H]4CCCOC4)c3n2)n[nH]1 [Example 78, (R)-N-(5-(difluoromethoxy)-1H-pyrazol-3-yl)-1-(tetrahydro-2H-pyran-3-yl)-1H-pyrazolo[3,4-b]pyrazin-6-amine]
≤ 0.01 µM	≥ 0.5 µM	FC(F)Oc1cc(Nc2cnc3cnn(CC4CC4)c3n2)n[nH]1 [Example 80, 1-(cyclopropylmethyl)-N-(5-(difluoromethoxy)-1H-pyrazol-3-yl)-1H-pyrazolo[3,4-b]pyrazin-6-amine]
≤ 0.01 µM	≥ 0.5 µM	FC(F)Oc1cc(Nc2cnc3cnn(C[C@H]4[C@@H]5COC[C@@H]54)c3n2)n[nH]1 [Example 81, 1-(((1R,5S,6s)-3-oxabicyclo[3.1.0]hexan-6-yl)methyl)-N-(5-(difluoromethoxy)-1H-pyrazol-3-yl)-1H-pyrazolo[3,4-b]pyrazin-6-amine]
≤ 0.01 µM	≥ 0.5 µM	FC(F)Oc1cc(Nc2cnc3cnn(C4CCOCC4)c3n2)n[nH]1 [Example 83, N-(5-(difluoromethoxy)-1H-pyrazol-3-yl)-1-(tetrahydro-2H-pyran-4-yl)-1H-pyrazolo[3,4-b]pyrazin-6-amine]
0.01 to 0.02 µM	≥ 0.5 µM	FC(F)Oc1cc(Nc2cnc3cnn(CC4COC4)c3n2)n[nH]1 [Example 85, N-(5-(difluoromethoxy)-1H-pyrazol-3-yl)-1-(oxetan-3-ylmethyl)-1H-pyrazolo[3,4-b]pyrazin-6-amine]
≤ 0.01 µM	≥ 0.5 µM	FC(F)Oc1cc(Nc2cnc3cnn(C[C@H]4COCCO4)c3n2)n[nH]1 [Example 86, (S)-1-((1,4-dioxan-2-yl)methyl)-N-(5-(difluoromethoxy)-1H-pyrazol-3-yl)-1H-pyrazolo[3,4-b]pyrazin-6-amine]
≤ 0.01 µM	0.1 to 0.5 µM	Cc1nn(CC2CCOCC2)c2nc(Nc3cc(OC(F)F)[nH]n3)cnc12 [Example 87, N-(5-(difluoromethoxy)-1H-pyrazol-3-yl)-3-methyl-1-((tetrahydro-2H-pyran-4-yl)methyl)-1H-pyrazolo[3,4-b]pyrazin-6-amine]

— patent publication US11970498B2, “CDK2 inhibitors” (BLUEPRINT MEDICINES CORPORATION, priority 2021, dated 2024)
